Results reported in patent US20240101573A1, “MACROCYCLIC K-RAS G12C INHIBITOR, PREPARATION METHOD THEREFOR AND USE THEREOF” (Abbisko Therapeutics Co., Ltd., priority 2020, published 2024).

Assays:
H358 = assay: Anti-proliferation 2D CTG test (H358); assay type: cell-based; settings: H358 cells, 1500 cells/well, 5 days incubation with compound, CTG readout
Description: (§1) When the cell confluency was 80%, the cells were isolated with 0.25% trypsin. The isolated cells were resuspended in 5 mL of fresh cell culture medium and centrifuged to collect the cells. The number of cells were counted at the same time. Then, the cells were suspended in a culture medium at a moderate concentration. The cells were placed into a 96-well plate with 1500 cells/well for H358 and 500 cells/well for MIAPACA-2. The 96-well plate was placed in an incubator at 37° C. and incubated overnight.
(§2) 2) Day 1: processing of compound
(§3) A 2 mM stock solution was serially diluted at 10 points at a ratio of 1:3. 5× culture medium containing the compound was transferred to the corresponding wells of 96 wells. The final peak concentration of the compound was […], and the final concentration of DMSO was 0.5%. The 96-well plate was placed in the incubator at 37° C. and incubated for 5 days.
(§4) 3) Baseline reading. 4) Day 6: reading of signals
(§5) A detection reagent (CTG) was added at 50 μL/well, and the signals were read in an Envision instrument.
(§6) The percentage of inhibition ([…]) at each compound concentration was calculated based on the signals from the HPE and ZPE control wells contained in each assay plate and the fluorescence signals from individual compound wells. The inhibition rate in the ZPE control wells containing the enzyme and substrate was 0%, and the inhibition rate in the HPE control wells only containing the substrate was […]. By testing the compound in terms of numeric concentration and inhibition percentage, the compound concentration required for […] inhibition (IC50) was determined using a four-parameter logarithmic dose-response equation. The endpoint value (IC50) of the reference compound was evaluated in each experiment as a quality control measure. If the endpoint value was within three times the expected value, the experiment was considered acceptable.

MIA PaCa-2 = assay: Anti-proliferation 2D CTG test (MIA PaCa-2); assay type: cell-based; settings: MIAPACA-2 cells, 500 cells/well, 5 days incubation with compound, CTG readout
Description: as §1, §2, §3, §4, §5, §6

[1] = Homo sapiens, MIA PaCa-2, 120 h

Row | Compound | IC50 (H358) [nM] | IC50 (MIA PaCa-2) [nM] | IC50 (H358; Homo sapiens, NCI-H358, 120 h) [nM] | IC50 (MIA PaCa-2; [1]) [nM]
1 | 2^4-((S)-4-acryloyl-2-methylpiperazin-1-yl)-2^6,3^6-difluoro-7-hydroxy-1^2-isopropyl-2^1,2^2-dihydro-4-oxa-2(1,7)-pyrido[2,3-d]pyrimidina-1(3,4)-pyridina-3(1,2)-benzocycloheptane-2^2-one [Example 5] | 19 | 20 | – | –
2 | 11-((S)-4-acryloyl-2-methylpiperazin-1-yl)-2-((dimethylamino)methyl)-15,21-difluoro-7-isopropyl-3a,20a-dihydro-9H,20H-12,14-(epiethane[1,2]diylidene)benzo[b][1,3]dioxazolo[4,5-j]pyri do[3,4-h]pyrimido[6,1-f][1]oxa[5,7]diazacyclododecin-9-one [Example 64] | 3 | 1 | – | –
3 | C=CC(=O)N1CCN(c2nc(=O)n3c4nc(c(F)cc24)-c2c(F)cccc2OCC(O)C(O)c2ccnc(C(C)C)c2-3)[C@@H](C)C1 (stereo partly drawn) [Example 1, 2^4-((S)-4-acryloyl-2-methylpiperazin-1-yl)-2^6,3^6-difluoro-6,7-dihydroxy-1^2-isopropyl-2^1,2^2-dihydro-4-oxa-2(1,7)-pyrido[2,3-d]pyrimidina-1(3,4)-pyridina-3(1,2)-benzocycloheptane-2^2-one] | 13 | 10 | – | –
4 | C=CC(=O)N1CCN(c2nc(=O)n3c4nc(c(F)cc24)-c2c(F)cccc2OCC(O)C(O)c2ccnc(C(C)C)c2-3)[C@@H](C)C1 (stereo partly drawn) [Example 1-R, (R)-2^4-((S)-4-acryloyl-2-methylpiperazin-1-yl)-2^6,3^6-difluoro-6,7-dihydroxy-1^2-isopropyl-2^1,2^2-dihydro-4-oxa-2(1,7)-pyrido[2,3-d]pyrimidina-1(3,4)-pyridina-3(1,2)-benzocycloheptane-2^2-one] | 9 | 12 | – | –
5 | C=CC(=O)N1CCN(c2nc(=O)n3c4nc(c(F)cc24)-c2c(F)cccc2OCC(O)C(O)c2ccnc(C(C)C)c2-3)[C@@H](C)C1 (stereo partly drawn) [Example 1-S, (S)-2^4-((S)-4-acryloyl-2-methylpiperazin-1-yl)-2^6,3^6-difluoro-6,7-dihydroxy-1^2-isopropyl-2^1,2^2-dihydro-4-oxa-2(1,7)-pyrido[2,3-d]pyrimidina-1(3,4)-pyridina-3(1,2)-benzocycloheptane-2^2-one] | 931 | 100 | – | –
6 | C=CC(=O)N1C[C@H](C)N(c2nc(=O)n3c4nc(c(F)cc24)-c2c(F)cccc2OCC(O)C(O)c2ccnc(C(C)C)c2-3)C[C@H]1C (stereo partly drawn) [Example 2, (R)-2^4-((2S,5R)-4-acryloyl-2,5-dimethylpiperazin-1-yl)-2^6,3^6-difluoro-6,7-dihydroxy-1^2-isopropyl-2^1,2^2-dihydro-4-oxa-2(1,7)-pyrido[2,3-d]pyrimidina-1(3,4)-pyridina-3(1,2)-benzocycloheptane-2^2-one] | 2 | 1 | – | –
7 | C=CC(=O)N1C[C@H](C)N(c2nc(=O)n3c4nc(c(F)cc24)-c2c(F)cccc2OCC(O)C(O)c2ccnc(C(C)C)c2-3)C[C@H]1C (stereo partly drawn) [Example 3, (S)-2^4-((2S,5R)-4-acryloyl-2,5-dimethylpiperazin-1-yl)-2^6,3^6-difluoro-6,7-dihydroxy-1^2-isopropyl-2^1,2^2-dihydro-4-oxa-2(1,7)-pyrido[2,3-d]pyrimidina-1(3,4)-pyridina-3(1,2)-benzocycloheptane-2^2-one] | 1250 | 400 | – | –
8 | C=CC(=O)N1CCN(c2nc(=O)n3c4nc(c(F)cc24)-c2c(F)cccc2OCC(O)C(=O)c2ccnc(C(C)C)c2-3)[C@@H](C)C1 (stereo partly drawn) [Example 4, 2^4-((S)-4-acryloyl-2-methylpiperazin-1-yl)-2^6,3^6-difluoro-6-hydroxy-1^2-isopropyl-2^1,2^2-dihydro-4-oxa-2(1,7)-pyrido[2,3-d]primidina-1(3,4)-pyridina-3(1,2)-benzocycloheptane-2^2,7-dione] | – | – | 73 | 83
9 | C=CC(=O)N1CCN(c2nc(=O)n3c4nc(c(F)cc24)-c2c(F)cccc2OCC(O)C(OC(=O)CC)c2ccnc(C(C)C)c2-3)[C@@H](C)C1 (stereo partly drawn) [Example 6, 2^4-((S)-4-acryloyl-2-methylpiperazin-1-yl)-2^6,3^6-difluoro-6-hydroxy-1^2-isopropyl-2^2-oxo-2^1,2^2-dihydro-4-oxa-2(1,7)-pyrido[2,3-d]pyrimidina-1(3,4)-pyridina-3(1,2)-benzocycloheptane-7-yl propionate] | – | – | 10 | 10
10 | C=CC(=O)N1CCN(c2nc(=O)n3c4nc(c(F)cc24)-c2c(F)cccc2OCC(O)C(OC(C)=O)c2ccnc(C(C)C)c2-3)[C@@H](C)C1 (stereo partly drawn) [Example 7, 2^4-((S)-4-acryloyl-2-methylpiperazin-1-yl)-2^6,3^6-difluoro-6-hydroxy-1^2-isopropyl-2^2-oxo-2^1,2^2-dihydro-4-oxa-2(1,7)-pyrido[2,3-d]pyrimidina-1(3,4)-pyridina-3(1,2)-benzocycloheptane-7-yl acetate] | – | – | 15 | 10
11 | C=CC(=O)N1C[C@H](C)N(c2nc(=O)n3c4nc(c(F)cc24)-c2c(F)cccc2OCC(O)C(OC(C)=O)c2ccnc(C(C)C)c2-3)C[C@H]1C (stereo partly drawn) [Example 8, 2^4-((2S,5R)-4-acryloyl-2,5-dimethylpiperazin-1-yl)-2^6,3^6-difluoro-6-hydroxy-1^2-isopropyl-2^2-oxo-2^1,2^2-dihydro-4-oxa-2(1,7)-pyrido[2,3-d]pyrimidina-1(3,4)-pyridina-3(1,2)-benzocycloheptane-7-yl acetate] | – | – | 9 | 3
12 | C=CC(=O)N1CCN(c2nc(=O)n3c4nc(c(F)cc24)-c2c(F)cccc2OCC(O)C(OC(=O)C(C)C)c2ccnc(C(C)C)c2-3)[C@@H](C)C1 (stereo partly drawn) [Example 9, 2^4-((S)-4-acryloyl-2-methylpiperazin-1-yl)-2^6,3^6-difluoro-6-hydroxy-1^2-isopropyl-2^2-oxo-2^1,2^2-dihydro-4-oxa-2(1,7)-pyrido[2,3-d]pyrimidina-1(3,4)-pyridina-3(1,2)-benzocycloheptane-7-yl isobutyrate] | – | – | 21 | 13
13 | C=CC(=O)N1CCN(c2nc(=O)n3c4nc(c(F)cc24)-c2c(F)cccc2OCC(O)C(OC(=O)C2CC2)c2ccnc(C(C)C)c2-3)[C@@H](C)C1 (stereo partly drawn) [Example 10, 2^4-((S)-4-acryloyl-2-methylpiperazin-1-yl)-2^6,3^6-difluoro-6-hydroxy-1^2-isopropyl-2^2-oxo-2^1,2^2-dihydro-4-oxa-2(1,7)-pyrido[2,3-d]pyrimidina-1(3,4)-pyridina-3(1,2)-benzocycloheptane-7-yl cyclopropanecarboxylate] | – | – | 5 | 4
14 | C=CC(=O)N1CCN(c2nc(=O)n3c4nc(c(F)cc24)-c2c(F)cccc2OCC(O)C(OC(=O)OC(C)(C)C)c2ccnc(C(C)C)c2-3)[C@@H](C)C1 (stereo partly drawn) [Example 11, 2^4-((S)-4-acryloyl-2-methylpiperazin-1-yl)-2^6,3^6-difluoro-6-hydroxy-1^2-isopropyl-2^2-oxo-2^1,2^2-dihydro-4-oxa-2(1,7)-pyrido[2,3-d]pyrimidina-1(3,4)-pyridina-3(1,2)-benzocycloheptane-7-yl tert-butylcarbonate] | – | – | 26 | 21
15 | C=CC(=O)N1CCN(c2nc(=O)n3c4nc(c(F)cc24)-c2c(F)cccc2OCC(OC(=O)CC)C(OC(=O)CC)c2ccnc(C(C)C)c2-3)[C@@H](C)C1 (stereo partly drawn) [Example 12, 2^4-((S)-4-acryloyl-2-methylpiperazin-1-yl)-2^6,3^6-difluoro-1^2-isopropyl-2^2-oxo-2^1,2^2-dihydro-4-oxa-2(1,7)-pyrido[2,3-d]pyrimidina-1(3,4)-pyridina-3(1,2)-benzocycloheptane-6,7-diyl dipropionate] | – | – | 26 | 26
16 | C=CC(=O)N1CCN(c2nc(=O)n3c4nc(c(F)cc24)-c2c(ccc(Cl)c2F)OCC(O)C(OCC)c2ccnc(C(C)C)c2-3)[C@@H](C)C1 (stereo partly drawn) [Example 73, (S)-2^4-((S)-4-acryloyl-2-methylpiperazin-1-yl)-3^5-chloro-7-ethoxy-2^6,3^6-difluoro-6-hydroxy-1^2-isopropyl-2^1,2^2-dihydro-4-oxa-2(1,7)-pyrido[2,3-d]pyrimidina-1(3,4)-pyridina-3(1,2)-benzocycloheptane-2^2-one] | 668 | – | – | –
17 | C=CC(=O)N1C[C@H](C)N(c2nc(=O)n3c4nc(c(F)cc24)-c2c(ccc(Cl)c2F)OCC(O)C(OCC)c2ccnc(C(C)C)c2-3)C[C@H]1C (stereo partly drawn) [Example 77, (S)-(S)-2^4-((2S,5R)-4-acryloyl-2,5-dimethylpiperazin-1-yl)-3^5-chloro-7-ethoxy-2^6,3^6-difluoro-6-hydroxy-1^2-isopropyl-2^1,2^2-dihydro-4-oxa-2(1,7)-pyrido[2,3-d]pyrimidina-1(3,4)-pyridina-3(1,2)-benzocycloheptane-2^2-one] | 523 | – | – | –
